Measured values taken from patent US8729034B2, “Pharmaceutical composition having virucidal and spermicidal activity” (priority 2007, dated 2014).
“And” between values parts separate entries of the source, which are not always exact repeats. Equal entries are not always repeated.

Assays:
NL4.3 virus = test: Anti-HIV activity in P4 (Hela-CD4-LTR-β Gal) cells (p24 ELISA, X-gal staining); type: cell-based, HIV-1; details: for Percentage inhibition of hiv growth in p4 cell line, Without Pretreatment: untreated virus; for Inhibition of viral transmission, Ac-B-treated virus: subsequent culture with or without Ac-B
Experimental: P4 (Hela-CD4-LTR-β Gal) cells were infected with 0.05 MOI of NL4.3 virus pretreated without or with Ac-B at varying concentrations (1 hour at 37 degree C.) followed by incubation for 48 hours in the presence or absence of Ac-B at a concentration of 0.5 to 2.5 microgram per ml. Virus production was analyzed by ELISA of p24 antigen in the culture supernatant. Viral transmission in the transfected cells was evaluated by X-gal staining, in which an antiretroviral therapeutic drug, Azidothymidine (AZT) was used as positive control.

female rabbits = test: Contraceptive efficacy following intravaginal application in rabbits; type: in vivo, New Zealand Rabbits; details: intra-vaginal
Experimental: Healthy virgin, nulliparous female rabbits were primed with PMSG (200 i.u.; i.p.; 96 hrs prior to testing) to induce ovulation. Serial dilutions (2.5 mg/ml, 10 mg/ml, 25 mg/ml and 50 mg/ml) of Ac-B in KY-jelly was prepared to be used as test solutions and only KY-jelly was used for control group. Two ml of test/control solution was introduced 6-8 cm deep into the vagina of each rabbit with by the syringe with gavaging needle. The animal was held in supine position for about five minutes and then hand-mated by the selected proven bucks. The buck was allowed one-time mating. To ensure ovulation 100 i.u. of hCG was administered through the marginal ear vein of each participating doe. The vaginal lavage of the mated doe was examined under a microscope. The presence of spermatozoa in the lavage was considered as confirmed mating. The mated does were kept in separate cages to complete their gestation period and the number of delivered pups was recorded. The mean value of the pups was calculated to determine the contraceptive potential.

Female cycling rats = test: Intra uterine application of Ac-B and IUI in rat, fertilization outcome; type: in vivo, Sprague-Dawley rats
Experimental: Female cycling rats weighing 180-200 g were obtained from the institutional Animal House. The duplex nature of the rat uterus with separate cervical canal helped us to organize both control and experimental sets in the same animal with exposure to identical physiological milieu.
On the day of pro-estrous, both horns of the uterus were exposed by mid-ventral incision of the abdomen under light anesthesia following intra peritoneal injection of Ketamin at a concentration of 100 mg/kg body weight, supported by inhalation of anesthetic-ether, during 17.00-17.30 hours of the day. IUI was performed by injecting 50 microliters of sperm suspensions with varied concentration (25-30, 40-50, and 50-55 million sperms/ml) through a 24 G needle fitted onto a tuberculin syringe in the cervical end of the uterine lumen of each horn. The muscle in the injection site was held tightly for a while to prevent leakage through the puncture. Prior to IUI, each rat received a injection of 1.75 mg Ac-B in 50 microliters BWW medium in the left horn and simple BWW medium in the right horn. The opened abdominal muscle and skin layers were properly sutured by suturing silk thread. The outer most skin layers were further fixed by metal clips. The wound was properly cleaned with antiseptic lotions. Each operated animal was housed individually in fresh cage for collection and counting of unfertilized oocytes, two celled embryos, and fragmented bodies. […] The abdomen was opened and each of the fallopian tubes was collected carefully. The content of each tube was flushed out by introducing BWW medium into each tube with the help of a 30 G hypodermic needle in a watch glass. The flushed out lavage was examined under an inverted phase contrast microscope (Leitz, Labovert, ×100) to score the number of recovered fertilized/unfertilized eggs from individual fallopian tube.

human spermatozoa = test: Sander & Cramer spermicidal assay (in vitro); type: cell-based
Experimental: The exudates/liquefied human semen samples were suspended in BWW medium (pre equilibrated at 37 degree C.). The spermatozoa with forward motility were separated from immotile or sluggishly motile cells by the swim-up technique and were allowed to disperse evenly within a CO2 incubator at 37 degree C. At least five aliquots from each sample was used to prepare the working spermatozoa suspension. The swim up procedure was as follows:
Pre equilibrated BWW medium (1.25 ml) was gently layered over cauda-exudates or liquefied human semen (1 ml) in a sterile 15 ml conical-based centrifuge tube. The tube was inclined at an angle of 45 degree and incubated for 1 hour at 37 degree C. in a CO2-incubator. It was then gently returned to the upright position and the uppermost 1 ml medium with a turbid appearance was removed. This aliquot of motile cells was pooled from each set, then diluted with same volumes of pre equilibrated BWW medium, centrifuged at 500 g for 5 minutes and finally resuspended in 1 ml pre equilibrated BWW medium to obtain a working suspension. The sperm cells were counted in a Makler chamber (Zygotec Systems, Springfield, M A, USA) and finally a working spermatozoa suspension having concentration of 25 to 30×10^6 cells/ml was prepared.
For in vitro assay of spermicidal effect, sperms collected from proven male rats and mice, and motile spermatozoa from liquefied human semen were used.
The assay was done following the Sander & Cramer assay method. Two hundred micro liter (200 microliters) of working spermatozoa suspension was added to 1 ml solution of test material in BWW medium and mixed on a light vortex for 10 seconds. A wet mount was immediately prepared on a clean microscopy glass slide and examined (at ×100) under a phase contrast microscope (Leitz, Biomed). The weakest concentration that immobilized all spermatozoa within 20 seconds of mixing was recorded as MEC. At least five fields were examined for each wet mount preparation. The observation was repeated with five individual spermatozoa suspension for each concentration of test compound solution. For negative control, saponin solutions were replaced by equal volume of BWW medium, while Nonoxynol 9 was used as positive control.

[1] = 1.75 mg Ac-B intrauterine, sperm count 25-30 million/ml (N = 3)
[2] = 1.75 mg Ac-B intrauterine, sperm count 40-50 million/ml (N = 4)
[3] = 1.75 mg Ac-B intrauterine, sperm count 50-55 million/ml (N = 4)

Acaciaside-B [Ac-B]
Percentage inhibition of hiv growth in p4 cell line, Without Pretreatment (NL4.3 virus; Ac-B 0.5 microgram per ml, 48 hours): 0%
Percentage inhibition of hiv growth in p4 cell line, Pretreatment with Ac-B (NL4.3 virus; Ac-B 0.5 microgram per ml, virus pretreated 1 hour at 37 degree C, 48 hours): 76.53%
Anti-HIV activity by X-gal staining, compared with AZT (NL4.3 virus; Ac-B 1.0 microgram per ml (0.005 micromoles) vs AZT at 2 micromole): comparable to or greater than that induced by AZT
Percentage inhibition of hiv growth in p4 cell line, Without Pretreatment (NL4.3 virus; Ac-B 1 microgram per ml): 0%
Percentage inhibition of hiv growth in p4 cell line, Pretreatment with Ac-B (NL4.3 virus; Ac-B 1 microgram per ml, virus pretreated): 95.86%
Percentage inhibition of hiv growth in p4 cell line, Without Pretreatment (NL4.3 virus; Ac-B 2 microgram per ml): 0%
Percentage inhibition of hiv growth in p4 cell line, Pretreatment with Ac-B (NL4.3 virus; Ac-B 2 microgram per ml, virus pretreated): 96%
Percentage inhibition of hiv growth in p4 cell line, Without Pretreatment (NL4.3 virus; Ac-B 2.5 microgram per ml): 0%
Percentage inhibition of hiv growth in p4 cell line, Pretreatment with Ac-B (NL4.3 virus; Ac-B 2.5 microgram per ml, virus pretreated): 95.53%
Inhibition of viral transmission, Ac-B-treated virus (NL4.3 virus; Ac-B greater than or equal to 1.5 microgram per ml): > 95%
Inhibition of viral transmission, Ac-B-treated virus (NL4.3 virus; Ac-B ≧1.0 mcg/ml): > 95%
Inhibition of viral transmission, untreated virus (NL4.3 virus; cells infected with untreated virus and cultured in the presence of Ac-B): no inhibition of viral transmission
Mean numbers of pups delivered (female rabbits; 2 ml of 2.5 mg/ml Acaciaside-B in K-Y jelly (n = 5)): 3.4
Mean numbers of pups delivered (female rabbits; 2 ml of 10 mg/ml Acaciaside-B in K-Y jelly (n = 5)): 2.2
Mean numbers of pups delivered (female rabbits; 2 ml of 25 mg/ml Acaciaside-B in K-Y jelly (n = 5)): 0.2
Mean numbers of pups delivered (female rabbits; 2 ml of 50 mg/ml Acaciaside-B in K-Y jelly (n = 5)): 0.0
Fertilized (number of eggs), treated horn (Female cycling rats; 1.75 mg Ac-B in 50 microliters BWW intrauterine before IUI, sperm count 25-30 million/ml (N = 3), flushing 38-40 hours after IUI): 0 (0%)
Fertilized (%), treated horn (Female cycling rats; [1]): 0 (0%)
Unfertilized (%), treated horn (Female cycling rats; [1]): 100%
Unfertilized (number of eggs), treated horn (Female cycling rats; [1]): 17
Fertilized (number of eggs), treated horn (Female cycling rats; [2]): 0 (%)
Unfertilized (%), treated horn (Female cycling rats; [2]): 100%
Unfertilized (number of eggs), treated horn (Female cycling rats; [2]): 19
Fertilized (%), treated horn (Female cycling rats; [3]): 18%
Fertilized (number of eggs), treated horn (Female cycling rats; [3]): 3
Unfertilized (%), treated horn (Female cycling rats; [3]): 82%
Unfertilized (number of eggs), treated horn (Female cycling rats; [3]): 13
MEC as per Sander and Cramer Test (human spermatozoa; Human spermatozoa (N = 5), weakest concentration immobilizing all spermatozoa within 20 seconds): 125 microgram per ml and 125 (±7) microgram per ml
EC50 for spermicidal activity in vitro (human spermatozoa; human sperm): 22 microgram per ml
MEC for spermicidal action (human spermatozoa; human sperm): 125 microgram
MEC for spermicidal activity (human spermatozoa; human sperm): 125 micro g/ml
MEC, spermicidal (human spermatozoa; human sperm): 125 µg/mL
